# Tests used:
# [1] = tested on: thrombin-antithrombin-complexes (TAT); assay: Plasma thrombin-antithrombin-complexes (Enzygnost TAT micro-assay) three days after treatment; type: in vivo; conditions: tTF alone; tumor bearing mice, three days after i.v. treatment
# Experimental: Mice were closely observed after treatment for clinical signs of toxicity and clinical status was documented at defined time points (5 minutes, 10 minutes, 15 minutes, 30 minutes. 1 hour, 2 hours, 24 hours, 48 hours, 72 hours). Blood samples were taken from the tail vein at 1 hour, 2 hours and 24 hours to measure TNFα blood levels. Three days after treatment, the mice were anesthetized, blood samples were taken from the vena cava for coagulation tests, and an autopsy was performed to document any changes in gross pathology. Tumors, lymph node metastases and the major normal organs (heart, lung, brain, liver, kidney, colon, spleen, pancreas) were harvested and prepared for histological analysis.
# At the time of autopsy, citrated blood was sampled from the vena cava and thrombocyte-free plasma was prepared by centrifugation. […] Thrombin-Antithrombin-complexes were detected with the Enzygnost® TAT micro-assay (Dade-Behring, Marburg, Germany) according to the manufacturer's instructions. ATIII levels were determined using the Coamatic® antithrombin-assay (Haemocbrom, Essen, Germany) following the manufacturer's instructions. Changes in the blood levels of thrombin and plasmin were detected by mixing citrated plasma with the respective chromogenic substrates S2238 and S2403 (Haemochrom, Essen, Germany) and measuring the increase of the absorption at 405 nm by an ELISA reader.
# [2] = molecular target: T1, immobilized tTF (Homo sapiens, UniProt P13726); assay: Real time binding of tTF to immobilized tTF (surface plasmon resonance); conditions: tTF alone or preincubated with endotoxin or factor VIIa
# T1 construct: Recombinant soluble Tissue Factor protein (amino acids 1-219) was extracted from the periplasmic space of transformed E. coli; made in house; host or cells: E. coli (periplasmic secretion, vector pswc7)
# T1 sequence (P13726 33-251): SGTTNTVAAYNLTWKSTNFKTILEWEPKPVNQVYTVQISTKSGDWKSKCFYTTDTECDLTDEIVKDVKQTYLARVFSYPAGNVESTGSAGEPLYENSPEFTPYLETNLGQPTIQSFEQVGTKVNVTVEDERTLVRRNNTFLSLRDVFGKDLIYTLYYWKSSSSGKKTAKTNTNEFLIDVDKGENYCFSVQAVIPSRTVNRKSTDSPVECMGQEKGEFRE
# [3] = tested on: 2F2B mouse endothelial cells; assay: Binding of tTF to tissue factor-expressing endothelial cells (FACS, cell bound coagulation assay); type: cell-based; conditions: FACS analysis or cell bound coagulation assay
# Experimental: Cells were washed and coagulation factor mix (as described above) was added. S2765 substrate was added and Factor Xa generation was measured as described above.
# 2F2B cells were stimulated with LPS (20 μg/ml) or TNFα (500 U/ml) for 4 h at 37° C. […] Fluorescent cells were detected on a flow cytometer (Becton Dickinson, San Jose, Calif.).
# [4] = tested on: F9 sarcoma tumors; assay: Tumor tissue necrosis in F9 sarcoma mouse model; type: in vivo, balb/c nude mice; conditions: endotoxin-free tTF 4 μg; diluent 40-50% spontaneous necrosis
# Experimental: 1×10^7 F9 sarcoma cells were injected subcutaneously into the right flank of balb/c nude mice. Subcutanous tumors were measured with a caliper in three perpendicular directions a, b, and c, and volumes calculated according to the formula V=π/6×a'b×c. Treatment was initiated when subcutaneous tumors reached a size of 150 to 300 μl.
# Reagents were administered into the lateral tail vein.
# Mice were closely observed after treatment for clinical signs of toxicity and clinical status was documented at defined time points. Three days after treatment, mice were sacrificed and tumors were harvested. Paraffin embedded tissues were stained with hematoxilin and eosin (H&E). Tissue sections were analyzed on a light microscope by two independent investigators and histological findings were documented. Tumor sections with necrotic areas were scanned with a GS-700 imaging densitometer (Biorad, Hercules, Calif.) and areas of necrosis were calculated as % of total section area.
# [5] = tested on: L540 tumor blood vessels; assay: Thrombosis of L540 tumor vessels by anti-VCAM-1·tTF coaguligand; type: in vivo, mice; conditions: equivalent quantities
# Text: Before coaguligand injection, tumors were viable, having a uniform morphology lacking regions of necrosis. […] Within four hours of coaguligand injection, 40-70% of blood vessels were thrombosed. despite the initial staining of only 20-30% of tumor blood vessels. The thrombosed vessels contained occlusive platelet aggregates, packed erythrocytes and fibrin. In several regions, the blood vessels had ruptured, spilling erythrocytes into the tumor interstitium.
# [6] = tested on: L540 tumors; assay: Anti-tumor activity of anti-VCAM-1·tTF coaguligand in L540 tumors; type: in vivo, SCID mice; conditions: controls
# Experimental: The anti-tumor activity of anti-VCAM-1-tTF coaguligand was determined in SCID mice bearing 0.3-0.4 cm^3 L540 tumors. The drug was administered i.v. 3 times at intervals of 4 days.
# [7] = tested on: C1300 (Muγ) tumors; assay: Coaguligand (B21-2/10H10 + tTF) treatment of C1300 (Muγ) tumors; type: in vivo, BALB/c nu/nu mice; conditions: paraffin sections, 30 minutes to 24 hours after administration
# Text: To improve the C1300 (Muγ) tumor model, the C1300 (Muγ) cell line was subcloned into a cell line that can grow without being mixed with its parental cell, C1300, but still express the I-A^d MHC Class II antigen on the endothelial cells of the tumor. […] Vessels in other normal tissues were unstained.
# Vessels contained platelet aggregates, packed red cells and fibrin. At this time, tumor-cells were viable, being indistinguishable morphologically from tumor cells in untreated mice. […]
# To establish tumors, 10^6 to 1.5×10^7 tumor cells were injected subcutaneously into the right anterior flank of the mice. […] Other mice received equivalent quantities IgG, Fab′ or bispecific antibody alone. […]
# Twenty-four hours after being injected with tTF or immunoglobulin-tTF conjugates, the mice were anesthetized with metophane and were exsanguinated by perfusion with heparinized saline. […] Blood vessels having open lumens containing erythrocytes and blood vessels containing thrombi were counted. […]
# Other mice received equivalent quantities of bispecific antibody alone. […] Perpendicular tumor diameters were measured at regular intervals and tumor volumes were calculated.
# [8] = tested on: A20 lymphoma cells (I-A^d positive), mouse or human plasma; assay: In vitro coagulation assay on A20 cells with capture bispecific antibody B21-2/10H10; type: cell-based; conditions: for coagulation time: cells alone 190 seconds
substance,measurement,setting,value
"tTF: extracellular domain of the mature Tissue Factor protein (amino acid 1-219), recombinant; depyrogenated in Example X",TAT,[1],25.4 ng/mL
same,binding to immobilized tTF,[2],did not bind to or homodimerize with immobilized tTF
same,binding to endothelial cells expressing tissue factor,[3],no binding of tTF to endothelial cells
same,average tumor tissue necrosis,[4],45%
same,control reagents causing thrombosis,[5],None
same,effect on tumor growth,[6],did not affect tumor growth
same,thrombi or abnormalities in normal organs,[7],"neither thrombi, nor histological or morphological abnormalities were visible"
same,coagulation time,"[8]; 20,000 molecules of tTF per cell",140 s
same,coagulation time,"[8]; 300,000 molecules of tTF per cell",40 s
same,concentration at which plasma coagulated in 50 seconds,"[8]; bound via B21-2/10H10 to A20 cells, separate studies per block",3 nM
same,effect on coagulation time,[8]; cells incubated with tTF alone (not bound),no effect on coagulation time
same,time to visible fibrin strands after addition of mouse plasma,"[8]; tTF bound to A20 cells by B21-2/10H10, untreated cells 164 seconds",36 s

# — patent publication US20030124132A1 (University of Texas, published 2003)
